We go through two molecules from patent US20240252454A1, “COMPOSITION COMPRISING AN INHIBITOR OF MITOCHONDRIAL TRANSCRIPTION” (LEAD DISCOVERY CENTER GMBH, priority 2021, published 2024).

Each structure is given as a SMILES string.

Series [1] is described as follows: PK and toxicological studies, plasma and liver concentrations. Format: in vivo. Conditions: oral combination of the IMT and Venetoclax in 0.5% methyl cellulose in water, NBSGW mice, 4 hours, plasma and liver (FIG. 4). As to the method: Combinations s of 2-[(3R)-1-[(2R)-2-[4-(2-chloro-4-fluoro-phenyl)-2-oxo-chromen-7-yl]oxypropanoyl]-3-piperidyl]acetic acid and Venetoclax were administered orally in a formulation of 0.5% methyl cellulose in water, before the respective substance concentrations (y-axis) of Venetoclax (left) or 2-[(3R)-1-[(2R)-2-[4-(2-chloro-4-fluoro-phenyl)-2-oxo-chromen-7-yl]oxypropanoyl]-3-piperidyl]acetic acid (right) after 4 hours and extraction from blood plasma or liver tissue were analysed by LC-MS. Error bars indicate the standard deviation around the mean of the multiple measurements.
For this, a vehicle formulation suitable for the oral administration of the combination of Venetoclax and 2-[(3R)-1-[(2R)-2-[4-(2-chloro-4-fluoro-phenyl)-2-oxo-chromen-7-yl]oxypropanoyl]-3-piperidyl]acetic acid was prepared to examine its pharmacokinetic suitability. Since the formulations based on ethanol, PEG-400 and Phosal that have been published for Venetoclax have not proven to be suitable for generating an administrable solution or suspension of IMT and Venetoclax, a simplified formulation of 0.5% methyl cellulose in water was prepared, which was tested initially in PK and toxicological studies in NBSGW mice (FIG. 4). […] On the other hand, doses that could be safely used were established in this mouse model, with which the subsequent studies could be carried out.

Series [2] concerns A2780 ovarian carcinoma xenograft. Kind of series: in vivo xenograft study with IMT and MEKi in A2780. As to the method:
Time course of tumour growth (top) and body weight change (bottom). Transplant with A2780 on day 0, stratification on day six into six groups (n=8). Treatment with vehicle formulation, twice daily 25 mg/kg or 12.5 mg/kg Selumetinib, once daily 100 mg/kg (3S)-1-[(2R)-2-[4-(2-chloro-4-fluoro-phenyl)-2-oxo-chromen-7-yl]oxypropanoyl]piperidine-3-carboxylic acid, or the combination of IMT with 12.5 mg/kg MEKi or 25 mg/kg MEKi as indicated. Error bars indicate the standard deviation of the respective group. * indicates significant differences from the control group (nonparametric Whitnes-U test, p<0.05).
Female NMRI: nu/nu mice were injected subcutaneously with the ovarian carcinoma cell line and, after reaching a palpable tumour volume of 0.2 cm3, were randomized and divided into groups of eight animals each. In addition to a control group, which was administered only with the vehicle formulation, additional groups were given 100 mg/kg (3S)-1-[(2R)-2-[4-(2-chloro-4-fluoro-phenyl)-2-oxo-chromen-7-yl]oxypropanoyl]piperidine-3-carboxylic acid, 12.5 mg/kg AZD6244, 25 mg/kg AZD6244 or the combination of 100 mg/kg (3S)-1-[(2R)-2-[4-(2-chloro-4-fluoro-phenyl)-2-oxo-chromen-7-yl]oxypropanoyl]piperidine-3-carboxylic acid and 12.5 or 25 mg/kg AZD6244 was administered. The substance was administered orally over 21 days, twice daily in 25% PEG400, 57% HPbCD. […]

A further series has as its system A2780. Put plainly: CellTiter-GLO (CTG) assay, combinatorial matrix. The format is cell-based. Conditions: for Measured residual activity (%) based on an untreated control group (=100%): A2780, 72 h, cellular ATP content (CellTiter-GLO). As to the method:
To determine the in vitro cellular viability, cellular ATP concentrations were measured using a luminescence-based homogenous assay format, as described here. […] Optimal cell density for each cell line was determined to guarantee linearity. For viability assays with compounds, cells were then seeded at a density of 200 to 1000 per well in 25 μl in 384-well plates (Greiner Bio-One, Frickenhausen, Germany). After overnight incubation at 37° C./5% CO2, 25 nl or 75 nl compounds were added to each sample well by using BIOMEK FXP Laboratory Automation Workstation (Beckman Coulter, USA). Wells with cells and 0.1% or 0.3% DMSO in culture medium were used as positive controls, wells with cells and 10 μM staurosporine (Selleck Chemicals, Huston, USA) in culture medium were used as negative controls. Upon incubation with compounds for 72 h at 37° C./5% CO2 25 μl Cell Titer Glo reagent (Promega, Madison, USA, European Pat. No. 1131441, U.S. Pat. Nos. 7,083,911, 7,452,663 and 7,732,128) 1:2 diluted with cell culture medium) was added to each well to determine cell viability. 384well-plates were placed for 2 min on an orbital microplate shaker and incubated for further 10 min at room temperature resulting in a stabilization of light signal. Luminescence was measured by Envision Plate Reader (Perkin Elmer, USA).
All in vitro cell culture experiments were carried out under near physiological glucose concentrations (5 mM) in at least two independent replicates.

Another series concerns HEC59. Kind of series: CellTiter-GLO (CTG) assay, combinatorial matrix. The format is cell-based. Conditions: 30 μM to 15 nM IMT + 30 μM to 40 nM BAY-876.

As to `CC1(C)CCC(CN2CCN(c3ccc(C(=O)NS(=O)(=O)c4ccc(NCC5CCOCC5)c([N+](=O)[O-])c4)c(Oc4cnc5[nH]ccc5c4)c3)CC2)=C(c2ccc(Cl)cc2)C1` [Venetoclax], the “PK parameters, in particular the plasma and tissue concentrations” value in series [1] is recorded as “do not significantly influence one another”.

In the case of `C[C@@H](Oc1ccc2c(-c3ccc(F)cc3Cl)cc(=O)oc2c1)C(=O)N1CCC[C@H](C(=O)O)C1` [(3S)-1-[(2R)-2-[4-(2-chloro-4-fluoro-phenyl)-2-oxo-chromen-7-yl]oxypropanoyl]piperidine-3-carboxylic acid], the “final tumour volume after completion of the study” value in series [2] (100 mg/kg IMT + 12.5 or 25 mg/kg AZD6244, oral, 21 days, compared to the same amounts of MEK inhibitor alone (FIG. 2)) is “advantage of the combination treatment”. Further, the “tolerability (changes in body weight, acute overt effects)” value in series [2] (combination administration of IMT and AZD6244 over the course of the study) is reported as “well tolerated”. Further, the “Measured residual activity (%) based on an untreated control group (=100%)” value (from here on “Measured residual activity (%) based”) in the series on A2780 (Teriflunomide 0 = IMT alone at the concentration (μM) in c1 of the row, IMT 0.12 µM) is listed as 32%; in the series with A2780 (Teriflunomide 0 = IMT alone at the concentration (μM) in c1 of the row, IMT 15 µM) it was 28%; in the series on A2780 (Teriflunomide 0.04 (μM) + IMT (μM) (30-0), IMT 0.12 µM), 31%; in the series with A2780 (Teriflunomide 0.04 (μM) + IMT (μM) (30-0), IMT 0.47 µM), 28%; in the series with A2780 (Teriflunomide 0.04 (μM) + IMT (μM) (30-0), IMT 7.5 µM), 27%; in the series with A2780 (Teriflunomide 0.1 (μM) + IMT at the concentration (μM) in c1 of the row (30-0), IMT 0.23 µM) it was 29%. Also, the “Measured residual activity (%) based” value in the series on A2780 (Teriflunomide 0.1 (μM) + IMT at the concentration (μM) in c1 of the row (30-0), IMT 7.5 µM) is 22%; with A2780 (Teriflunomide 0.4 (μM) + IMT at the concentration (μM) in c1 of the row (30-0), IMT 0.06 µM), 32%; in the series on A2780 (Teriflunomide 0.4 (μM) + IMT at the concentration (μM) in c1 of the row (30-0), IMT 7.5 µM), 22%; in the series on A2780 (Teriflunomide 0.4 (μM) + IMT at the concentration (μM) in c1 of the row (30-0), IMT 15 µM), 25%; with A2780 (Teriflunomide 1.1 (μM) + IMT at the concentration (μM) in c1 of the row (30-0), IMT 0.06 µM), 30%; with A2780 (Teriflunomide 1.1 (μM) + IMT at the concentration (μM) in c1 of the row (30-0), IMT 0.94 µM), 23%. Further, the “Measured residual activity (%) based” value in the series with A2780 (Teriflunomide 3.3 (μM) + IMT at the concentration (μM) in c1 of the row (30-0), IMT 0.06 µM) was 24%; in the series with A2780 (Teriflunomide 3.3 (μM) + IMT at the concentration (μM) in c1 of the row (30-0), IMT 0.47 µM), 23%; in the series on A2780 (Teriflunomide 3.3 (μM) + IMT at the concentration (μM) in c1 of the row (30-0), IMT 30 µM), 22%; in the series with A2780 (Teriflunomide 10 (μM) + IMT at the concentration (μM) in c1 of the row (30-0), IMT 0.12 µM) it was 23%; with A2780 (Teriflunomide 10 (μM) + IMT at the concentration (μM) in c1 of the row (30-0), IMT 0.94 µM) it was 19%; in the series with A2780 (Teriflunomide 30 (μM) + IMT at the concentration (μM) in c1 of the row (30-0), IMT 0.03 µM), 19%. Further, the “Measured residual activity (%) based” value in the series with A2780 (Teriflunomide 30 (μM) + IMT at the concentration (μM) in c1 of the row (30-0), IMT 30 µM) stood at 13%. The “combination of IMT and GLUTi compared to treatment with only the GLUTi BAY-876 alone” value in the series on A2780 (A2780, CTG matrix, 30 μM to 15 nM IMT + 30 μM to 40 nM BAY-876) was “advantage of the combination”; in the series on HEC59, “advantage of the combination”.
